Results reported in ChEMBL document CHEMBL4831559, “Antitarget Selectivity and Tolerability of Novel Pyrrolo[2,3-d]pyrimidine RET Inhibitors” (ACS Med Chem Lett, 2021).
Calls of active or inactive are those of the source. The calls are words filed in the database; no cut-off is given here.

What was measured:
[1] = Oral bioavailability in BALB/c mouse at 10 mg/kg measured by LC-MS/MS analysis; assay type: ADME, organism-based; conditions: in vivo
[2] = AUC in BALB/c mouse at 2 mg/kg, iv measured by LC-MS/MS analysis; assay type: ADME, organism-based; design: dose 2 mg/kg; conditions: in vivo
[3] = system: BaF3; assay: cells; conditions: Mus musculus, BaF3, 48 h
Description: Antiproliferative activity against mouse BaF3 cells assessed as reduction in cell proliferation incubated for 48 hrs by cell proliferation assay

[4] = AUC in nude mouse xenografted with KIF5B-RET BaF3 cells xenografted at 10 mg/kg, po qd for 14 days; assay type: ADME, organism-based; design: time 14 day, dose 10 mg/kg; conditions: in vivo
[5] = Cmax in BALB/c mouse at 10 mg/kg, po measured by LC-MS/MS analysis; assay type: ADME, organism-based; design: route oral, dose 10 mg/kg; conditions: in vivo
[6] = fAUC in nude mouse xenografted with KIF5B-RET BaF3 cells xenografted at 10 mg/kg, po qd for 14 days; assay type: ADME, organism-based; conditions: in vivo, 336 h, time 14 day
[7] = Clearance in BALB/c mouse at 2 mg/kg, iv measured by LC-MS/MS analysis; assay type: ADME, organism-based; conditions: in vivo
[8] = Volume of distribution at steady state in BALB/c mouse at 2 mg/kg, iv measured by LC-MS/MS analysis; assay type: ADME, organism-based; conditions: in vivo, read-out: Vdss
[9] = Cmax in nude mouse xenografted with KIF5B-RET BaF3 cells xenografted at 10 mg/kg, po qd for 14 days; assay type: ADME, organism-based; design: route oral, time 14 day, dose 10 mg/kg; conditions: in vivo
[10] = target: T1, Voltage-gated inwardly rectifying potassium channel KCNH2 (Homo sapiens, UniProt Q12809); assay: Inhibition of human ERG expressed in CHO cells by manual patch clamp assay; assay type: cell-based
T1 sequence (Q12809 whole entry): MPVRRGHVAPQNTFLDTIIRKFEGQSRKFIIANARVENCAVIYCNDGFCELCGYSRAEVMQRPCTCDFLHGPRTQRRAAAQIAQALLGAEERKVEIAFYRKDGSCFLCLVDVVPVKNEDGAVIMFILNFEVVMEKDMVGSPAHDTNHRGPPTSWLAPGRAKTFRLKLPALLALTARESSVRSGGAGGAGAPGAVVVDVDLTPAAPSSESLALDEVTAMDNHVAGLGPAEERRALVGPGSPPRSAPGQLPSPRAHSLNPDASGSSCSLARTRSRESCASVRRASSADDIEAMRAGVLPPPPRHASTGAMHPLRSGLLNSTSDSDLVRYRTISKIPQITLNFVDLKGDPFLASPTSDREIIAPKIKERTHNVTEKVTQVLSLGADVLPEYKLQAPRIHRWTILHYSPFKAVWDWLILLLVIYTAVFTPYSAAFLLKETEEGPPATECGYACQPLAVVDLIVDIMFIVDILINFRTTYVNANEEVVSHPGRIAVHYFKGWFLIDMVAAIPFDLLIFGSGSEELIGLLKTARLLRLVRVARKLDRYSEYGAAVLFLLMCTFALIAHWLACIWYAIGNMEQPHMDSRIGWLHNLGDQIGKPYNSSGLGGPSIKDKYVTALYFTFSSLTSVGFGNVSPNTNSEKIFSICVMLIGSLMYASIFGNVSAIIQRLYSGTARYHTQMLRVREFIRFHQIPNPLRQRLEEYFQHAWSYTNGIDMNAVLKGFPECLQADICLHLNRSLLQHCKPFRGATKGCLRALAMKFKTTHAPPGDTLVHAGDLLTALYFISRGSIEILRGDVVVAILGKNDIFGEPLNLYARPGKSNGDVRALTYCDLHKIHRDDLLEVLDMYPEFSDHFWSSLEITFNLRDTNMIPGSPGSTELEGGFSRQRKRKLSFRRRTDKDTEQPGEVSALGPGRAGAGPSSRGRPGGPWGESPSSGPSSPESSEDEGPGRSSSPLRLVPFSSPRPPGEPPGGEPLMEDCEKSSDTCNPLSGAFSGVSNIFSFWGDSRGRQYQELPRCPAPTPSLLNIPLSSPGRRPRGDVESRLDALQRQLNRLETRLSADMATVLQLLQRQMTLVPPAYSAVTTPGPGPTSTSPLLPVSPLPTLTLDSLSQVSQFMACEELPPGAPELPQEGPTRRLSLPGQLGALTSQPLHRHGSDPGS

[11] = AUC in BALB/c mouse at 10 mg/kg, po measured by LC-MS/MS analysis; assay type: ADME, organism-based; design: dose 10 mg/kg; conditions: in vivo
[12] = Half life in BALB/c mouse at 2 mg/kg, iv measured by LC-MS/MS analysis; assay type: ADME, organism-based; conditions: in vivo
[13] = Cmax in BALB/c mouse at 2 mg/kg, iv measured by LC-MS/MS analysis; assay type: ADME, organism-based; design: route intravenous, dose 2 mg/kg; conditions: in vivo
[14] = Toxicity in nude mouse transfected with mouse KIF5B-RET BaF3 cells assessed as adverse effect at 10 mg/kg, po qd measured after 14 days; assay type: organism-based; conditions: in vivo, 336 h, time 14 day
[15] = target: T1, Voltage-gated inwardly rectifying potassium channel KCNH2; assay: Displacement of [3H]-dofetilide from human ERG expressed in CHO cell after 90 mins by microbeta liquid scintillation counting method; assay type: cell-based
[16] = fCmax in nude mouse xenografted with KIF5B-RET BaF3 cells xenografted at 10 mg/kg, po qd for 14 days; assay type: ADME, organism-based; conditions: in vivo, 336 h, time 14 day
[17] = Half life in BALB/c mouse at 10 mg/kg, po measured by LC-MS/MS analysis; assay type: ADME, organism-based; conditions: in vivo
[18] = Plasma protein binding in mouse at 5 uM measured after 16 hrs by LC-MS/MS based rapid equilibrium dialysis analysis; assay type: ADME, cell-free; conditions: read-out: PPB (converted)
[19] = system: Mus musculus; assay: Antitumor activity against mouse KIF5B-RET BaF3 cells xenografted in nude mouse assessed as tumor regression at 10 mg/kg, po qd measured after 16 days; assay type: functional, organism-based; conditions: time 16.0 day
[20] = target: Bcr/Abl fusion protein (Homo sapiens, UniProt P00519); assay: Inhibition of BCR-ABL (unknown origin) expressed in mouse BaF3 cells assessed as reduction in cell proliferation incubated for 48 hrs by cell proliferation assay; assay type: cell-based
[21] = AUC in BALB/c mouse at 13.5 mg/kg, po measured by LC-MS/MS analysis; assay type: ADME, organism-based; design: dose 13.5 mg/kg; conditions: in vivo
[22] = Oral bioavailability in BALB/c mouse at 13.5 mg/kg measured by LC-MS/MS analysis; assay type: ADME, organism-based; conditions: in vivo
[23] = target: Proto-oncogene tyrosine-protein kinase receptor Ret (Homo sapiens, UniProt P07949); assay: Inhibition of RET (658 to 1072) (unknown origin) by HTRF assay
Proto-oncogene tyrosine-protein kinase receptor Ret, sequence (P07949 whole entry): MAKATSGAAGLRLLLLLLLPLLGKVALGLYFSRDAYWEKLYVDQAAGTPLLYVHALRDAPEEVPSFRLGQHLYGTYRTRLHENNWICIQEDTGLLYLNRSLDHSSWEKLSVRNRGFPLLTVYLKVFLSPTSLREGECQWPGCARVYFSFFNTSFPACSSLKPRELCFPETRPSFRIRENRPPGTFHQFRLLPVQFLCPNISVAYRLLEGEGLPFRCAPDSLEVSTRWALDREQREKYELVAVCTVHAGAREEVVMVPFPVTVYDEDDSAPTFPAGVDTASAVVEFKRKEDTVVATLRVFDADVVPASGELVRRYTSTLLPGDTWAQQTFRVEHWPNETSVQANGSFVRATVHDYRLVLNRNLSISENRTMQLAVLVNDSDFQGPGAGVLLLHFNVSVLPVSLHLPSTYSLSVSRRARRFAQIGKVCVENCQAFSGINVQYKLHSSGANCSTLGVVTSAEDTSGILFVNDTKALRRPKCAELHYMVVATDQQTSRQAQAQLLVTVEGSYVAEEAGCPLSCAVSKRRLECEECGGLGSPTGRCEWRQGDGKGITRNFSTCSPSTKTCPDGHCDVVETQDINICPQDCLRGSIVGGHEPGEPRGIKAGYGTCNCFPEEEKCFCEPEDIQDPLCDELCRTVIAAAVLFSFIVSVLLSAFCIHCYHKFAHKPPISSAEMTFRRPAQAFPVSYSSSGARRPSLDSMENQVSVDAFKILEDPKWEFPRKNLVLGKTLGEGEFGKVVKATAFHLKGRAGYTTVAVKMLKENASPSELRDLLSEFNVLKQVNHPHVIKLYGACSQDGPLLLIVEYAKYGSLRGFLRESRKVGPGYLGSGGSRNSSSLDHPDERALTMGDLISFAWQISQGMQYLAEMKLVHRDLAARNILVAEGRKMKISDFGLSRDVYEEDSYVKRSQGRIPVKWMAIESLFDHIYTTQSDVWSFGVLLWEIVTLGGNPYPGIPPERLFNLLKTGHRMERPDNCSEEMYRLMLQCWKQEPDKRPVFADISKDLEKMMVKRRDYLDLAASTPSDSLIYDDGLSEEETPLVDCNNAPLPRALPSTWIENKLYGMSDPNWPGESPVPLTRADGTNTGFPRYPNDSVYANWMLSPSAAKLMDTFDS

[24] = Half life in BALB/c mouse at 13.5 mg/kg, po measured by LC-MS/MS analysis; assay type: ADME, organism-based; conditions: in vivo
[25] = Cmax in BALB/c mouse at 3.4 mg/kg, iv measured by LC-MS/MS analysis; assay type: ADME, organism-based; design: route intravenous, dose 3.4 mg/kg; conditions: in vivo
[26] = Clearance in BALB/c mouse at 3.4 mg/kg, iv measured by LC-MS/MS analysis; assay type: ADME, organism-based; conditions: in vivo
[27] = Volume of distribution at steady state in BALB/c mouse at 3.4 mg/kg, iv measured by LC-MS/MS analysis; assay type: ADME, organism-based; conditions: in vivo, read-out: Vdss
[28] = Half life in BALB/c mouse at 3.4 mg/kg, iv measured by LC-MS/MS analysis; assay type: ADME, organism-based; conditions: in vivo
[29] = Cmax in BALB/c mouse at 13.5 mg/kg, po measured by LC-MS/MS analysis; assay type: ADME, organism-based; design: route oral, dose 13.5 mg/kg; conditions: in vivo
[30] = AUC in BALB/c mouse at 3.4 mg/kg, iv measured by LC-MS/MS analysis; assay type: ADME, organism-based; design: dose 3.4 mg/kg; conditions: in vivo
[31] = system: BaF3; conditions: Mus musculus, dose 10.0 mg/kg, time 21.0 day
[32] = Toxicity in nude mouse transfected with mouse KIF5B-RET BaF3 cells assessed as adverse effect at 30 mg/kg, po qd measured after 14 days; assay type: organism-based; conditions: in vivo, 336 h, time 14 day
[33] = system: BaF3; assay: Antitumor activity against mouse KIF5B-RET BaF3 cells xenografted in nude mouse assessed as tumor regression at 1 to 10 mg/kg, po qd measured after 16 days; assay type: functional, organism-based; conditions: dose 1-10 mg/kg, time 16.0 day
[34] = system: Mus musculus; assay: Antitumor activity against mouse KIF5B-RET BaF3 cells xenografted in nude mouse assessed as tumor regression at 30 mg/kg, po qd measured after 16 days; assay type: functional, organism-based; conditions: time 16.0 day
[35] = AUC in nude mouse xenografted with KIF5B-RET BaF3 cells xenografted at 60 mg/kg, po qd for 14 days; assay type: ADME, organism-based; design: time 14 day, dose 60 mg/kg; conditions: in vivo
[36] = Toxicity in nude mouse transfected with mouse KIF5B-RET BaF3 cells assessed as adverse effect at 10 to 60 mg/kg, po qd measured after 14 days; assay type: organism-based; conditions: in vivo, 336 h, dose 10-60 mg/kg, time 14 day
[37] = system: BaF3; assay: Antitumor activity against mouse KIF5B-RET BaF3 cells xenografted in nude mouse assessed as tumor regression at 60 mg/kg, po qd measured after 14 days; assay type: functional, organism-based; conditions: time 14.0 day
[38] = Cmax in nude mouse xenografted with KIF5B-RET BaF3 cells xenografted at 60 mg/kg, po qd for 14 days; assay type: ADME, organism-based; design: route oral, time 14 day, dose 60 mg/kg; conditions: in vivo
[39] = target: Proto-oncogene tyrosine-protein kinase receptor Ret (Mus musculus) (UniProt P35546); assay: In vivo inhibition of RET phosphorylation in mouse KIF5B-RET BaF3 cells transfected in nude mouse […] at 60 mg/kg, po qd measured after 5 hrs; assay type: functional, organism-based
Proto-oncogene tyrosine-protein kinase receptor Ret (Mus musculus), sequence (P35546 whole entry): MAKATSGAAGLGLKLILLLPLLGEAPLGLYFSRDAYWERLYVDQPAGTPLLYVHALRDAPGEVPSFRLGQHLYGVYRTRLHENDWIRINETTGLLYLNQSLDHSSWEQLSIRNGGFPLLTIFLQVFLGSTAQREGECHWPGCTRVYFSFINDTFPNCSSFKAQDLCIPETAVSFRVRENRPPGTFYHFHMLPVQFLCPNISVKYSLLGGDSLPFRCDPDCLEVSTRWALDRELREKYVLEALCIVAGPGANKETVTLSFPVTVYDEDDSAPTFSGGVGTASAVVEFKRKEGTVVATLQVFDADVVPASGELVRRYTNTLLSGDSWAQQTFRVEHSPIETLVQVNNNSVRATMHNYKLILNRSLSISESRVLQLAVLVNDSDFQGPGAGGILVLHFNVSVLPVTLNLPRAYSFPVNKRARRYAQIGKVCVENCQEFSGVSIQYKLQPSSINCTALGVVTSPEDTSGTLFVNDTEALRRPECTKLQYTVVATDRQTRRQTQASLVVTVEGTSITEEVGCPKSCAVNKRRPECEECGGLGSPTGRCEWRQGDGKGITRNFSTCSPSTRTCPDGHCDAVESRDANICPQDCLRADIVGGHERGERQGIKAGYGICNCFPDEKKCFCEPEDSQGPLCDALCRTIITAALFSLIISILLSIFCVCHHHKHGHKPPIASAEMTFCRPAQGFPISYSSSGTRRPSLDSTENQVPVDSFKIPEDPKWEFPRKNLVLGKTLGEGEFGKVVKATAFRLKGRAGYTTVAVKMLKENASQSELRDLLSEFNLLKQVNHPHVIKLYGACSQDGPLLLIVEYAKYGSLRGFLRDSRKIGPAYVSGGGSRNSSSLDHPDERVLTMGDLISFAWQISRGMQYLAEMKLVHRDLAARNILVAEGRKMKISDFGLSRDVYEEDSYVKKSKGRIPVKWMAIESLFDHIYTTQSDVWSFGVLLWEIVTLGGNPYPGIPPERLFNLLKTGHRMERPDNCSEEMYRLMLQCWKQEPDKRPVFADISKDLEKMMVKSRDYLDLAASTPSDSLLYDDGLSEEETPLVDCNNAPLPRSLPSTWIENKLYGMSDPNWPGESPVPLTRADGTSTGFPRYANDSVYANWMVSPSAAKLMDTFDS

[40] = fAUC in nude mouse xenografted with KIF5B-RET BaF3 cells xenografted at 60 mg/kg, po qd for 14 days; assay type: ADME, organism-based; conditions: in vivo, 336 h, time 14 day
[41] = Toxicity in nude mouse transfected with mouse KIF5B-RET BaF3 cells assessed as body weight loss at 10 to 60 mg/kg, po qd measured after 14 days; assay type: organism-based; conditions: in vivo, 336 h, dose 10-60 mg/kg, time 14 day
[42] = fCmax in nude mouse xenografted with KIF5B-RET BaF3 cells xenografted at 60 mg/kg, po qd for 14 days; assay type: ADME, organism-based; conditions: in vivo, 336 h, time 14 day

Row | bioavailability [1] [%] | AUC [2] [µM·h] | IC50 [3] [µM] | AUC at 336 h [4] [µM·h] | Cmax [5] [µM] | fAUC [6] [µM·h] | clearance [7] [mL/min/kg] | Vd [8] [L/kg] | Cmax [9] [µM] | AUC [11] [µM·h] | half-life [12] [h] | Cmax [13] [µM] | fCmax [16] [µM] | half-life [17] [h] | fraction unbound at 16 h, 5 µM [18] | SMILES | IC50 [10] [µM] | IC50 [15] [µM] | Activity [19] | further results
1 | 60 | 41 | 4.6 | 50 | 10 | 1.6 | 1.9 | 0.37 | 8.3 | 120 | 3 | 14 | 0.26 | 3.7 | 0.031 | COC(=O)N[C@H]1CC[C@@H](n2cc(-c3ccc(Cl)c(N)c3)c3c(N)ncnc32)CC1 | 5.3 | 25 | Active | Activity [14]: Non-Toxic
2 | – | – | – | – | – | – | – | – | – | – | – | – | – | – | – | CC(=O)N1CCN([C@H]2C[C@@H](n3cc(-c4cc(O)ccc4F)c4c(N)ncnc43)C2)CC1 | – | – | – | IC50 [20]: 4.2 µM; AUC [21]: 0.3 µM·h; bioavailability [22]: 4%; IC50 [23]: 0.00054 µM; half-life [24]: 1.3 h; Cmax [25]: 6.4 µM; clearance [26]: 65 mL/min/kg; Vd [27]: 1.4 L/kg; half-life [28]: 1.6 h; Cmax [29]: 0.2 µM; AUC [30]: 2 µM·h
3 | 78 | 40 | 4.1 | 136 | 7.9 | 0.9 | 1.8 | 2.4 | 8.4 | 160 | 16 | 3.5 | 0.055 | 19 | 0.0065 | COC(=O)NC12CCC(n3cc(-c4cc(N)c(Cl)cc4F)c4c(N)ncnc43)(CC1)CC2 | 6 | > 30 | Active | inhibition [31]: Active; Activity [32]: Non-Toxic; Activity [33]: Active; Activity [34]: Active
4 | 48 | 5 | 4.6 | – | 3.8 | – | 15 | 1.3 | – | 12 | 1.2 | 5.1 | – | 2.4 | 0.356 | CC(=O)N1CCN([C@H]2C[C@@H](n3cc(-c4ccc(Cl)c(N)c4)c4c(N)ncnc43)C2)CC1 | – | – | – | AUC at 336 h [35]: 115 µM·h; Activity [36]: Non-Toxic; Activity [37]: Active; Cmax [38]: 19 µM; inhibition [39]: Active; fAUC [40]: 41 µM·h; Activity [41]: Non-Toxic; fCmax [42]: 6.8 µM
5 | – | – | 1.6 | – | – | – | – | – | – | – | – | – | – | – | – | Nc1ncnc2c1c(-c1cccc(O)c1)cn2C1CCCC1 | – | – | – | –
6 | – | – | > 10 | – | – | – | – | – | – | – | – | – | – | – | – | CC(=O)N1CCN([C@H]2C[C@@H](n3cc(-c4cccc(O)c4)c4c(N)ncnc43)C2)CC1 | – | – | – | –
